Consider 24 compounds from ChEMBL document CHEMBL1139816, “Melanocortin subtype 4 receptor agonists: structure-activity relationships about the 4-alkyl piperidine core” (Bioorg Med Chem Lett, 2007).

The target of one test is Melanocortin receptor 5 (Homo sapiens, UniProt P33032). As to the kind of experiment: […] at human MC5R assessed as stimulation of cAMP production. It counts as functional. The arrangement: concentration or dose not given beside the values. Background: Cyclic AMP is a second messenger, typically raised through Gs and lowered through Gi signalling.
Sequence of Melanocortin receptor 5 (P33032 whole entry): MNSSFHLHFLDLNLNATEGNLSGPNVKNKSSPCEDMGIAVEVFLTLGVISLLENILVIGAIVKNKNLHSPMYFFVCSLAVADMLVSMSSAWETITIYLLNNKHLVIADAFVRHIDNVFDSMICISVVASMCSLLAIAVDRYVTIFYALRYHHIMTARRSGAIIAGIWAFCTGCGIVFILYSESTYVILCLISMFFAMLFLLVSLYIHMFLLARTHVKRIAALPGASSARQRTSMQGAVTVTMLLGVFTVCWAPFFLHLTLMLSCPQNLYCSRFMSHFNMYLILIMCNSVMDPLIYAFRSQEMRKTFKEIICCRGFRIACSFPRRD
Test [1] addresses T1, Melanocortin receptor 4 (Homo sapiens, UniProt P32245). As to the kind of experiment: […] at human MC4R assessed as stimulation of cAMP production. It counts as functional. The arrangement: concentration or dose not given beside the values.
Another test has as its target Melanocortin receptor 3 (Homo sapiens, UniProt P41968). As to the kind of experiment: […] at human MC3R assessed as stimulation of cAMP production. It counts as functional. The arrangement: concentration or dose not given beside the values.
Test [2] deals with T1, Melanocortin receptor 4. As to the kind of experiment: Binding affinity to human MC4R.
Test [3] is filed under the species Homo sapiens. As to the kind of experiment: Ratio of EC50 for human MC5R to EC50 for human MC4R.
The species named for test [4] is Homo sapiens. The test is described as follows: Ratio of EC50 for human MC3R to EC50 for human MC4R.

Sequence of Melanocortin receptor 3 (P41968 whole entry): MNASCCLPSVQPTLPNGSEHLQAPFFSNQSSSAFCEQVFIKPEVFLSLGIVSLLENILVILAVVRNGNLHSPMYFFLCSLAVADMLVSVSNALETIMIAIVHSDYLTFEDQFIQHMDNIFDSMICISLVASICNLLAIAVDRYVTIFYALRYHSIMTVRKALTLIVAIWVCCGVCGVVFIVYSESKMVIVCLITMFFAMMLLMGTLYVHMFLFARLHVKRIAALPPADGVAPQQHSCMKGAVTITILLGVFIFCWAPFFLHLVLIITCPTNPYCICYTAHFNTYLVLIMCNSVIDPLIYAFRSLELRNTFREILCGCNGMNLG
T1 sequence (P32245 whole entry): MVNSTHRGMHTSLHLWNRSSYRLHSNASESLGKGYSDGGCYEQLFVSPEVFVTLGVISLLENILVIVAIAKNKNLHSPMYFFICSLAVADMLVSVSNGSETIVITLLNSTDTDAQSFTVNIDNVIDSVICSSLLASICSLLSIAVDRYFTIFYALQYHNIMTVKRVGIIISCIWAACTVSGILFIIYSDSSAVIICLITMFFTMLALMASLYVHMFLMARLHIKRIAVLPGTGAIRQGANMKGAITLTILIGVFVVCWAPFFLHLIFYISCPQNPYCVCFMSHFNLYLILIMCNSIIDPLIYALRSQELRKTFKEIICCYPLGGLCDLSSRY

A word on the EC50: it is the concentration at which the effect is half-maximal. As a reminder, the IC50 is the point on the concentration scale where inhibition reaches its midpoint. As for `CC(C)CC1(Cc2nnnn2C)CCN(C(=O)[C@H](Cc2ccc(Cl)cc2)NC(=O)[C@H]2Cc3ccccc3CN2)CC1`, the results for the Activity at Melanocortin receptor 5, on Melanocortin receptor 4 [1] and on Melanocortin receptor 3 were 46%, 98% and 31%, respectively. In addition, the concentration giving a half-maximal response (EC50) at Melanocortin receptor 5 came to 662 nM; at Melanocortin receptor 4 [1], 12.5 nM; on Melanocortin receptor 3, 680 nM. On Melanocortin receptor 4 [2], this compound displayed an IC50 of 6 nM.

For `CC1(CC#N)CCN(C(=O)[C@H](Cc2ccc(Cl)cc2)NC(=O)[C@H]2Cc3ccccc3CN2)CC1`, on Melanocortin receptor 4 [2], the concentration for half-maximal inhibition (IC50) was 1490 nM.

In the case of `CC(C)C1(CC#N)CCN(C(=O)[C@H](Cc2ccc(Cl)cc2)NC(=O)[C@H]2Cc3ccccc3CN2)CC1`, the Activity at Melanocortin receptor 5 amounted to 20%; on Melanocortin receptor 4 [1] it was 32%. Also, the figures for the 50% effective concentration (EC50) at Melanocortin receptor 5 and on Melanocortin receptor 4 [1] were 1100 nM and 827 nM, respectively. In addition, the IC50 at Melanocortin receptor 4 [2] amounted to 63 nM.

In the case of `CN1CCN[C@@H](C(=O)N[C@@H](Cc2ccc(F)cc2)C(=O)N2CCC(C(=O)NC(C)(C)C)(C3C=CCCC3)CC2)C1` (some centres undefined), at Melanocortin receptor 4 [1], the Activity came to 76% and the concentration for a half-maximal effect (EC50) worked out at 84.6 nM. Also, the IC50 at Melanocortin receptor 4 [2] amounted to 64 nM.

Take `N#CCC1(C2CC2)CCN(C(=O)[C@H](Cc2ccc(Cl)cc2)NC(=O)[C@H]2Cc3ccccc3CN2)CC1`: on Melanocortin receptor 4 [2], the IC50 came out at 173 nM.

With `CCC1(CC#N)CCN(C(=O)[C@H](Cc2ccc(Cl)cc2)NC(=O)[C@H]2Cc3ccccc3CN2)CC1`, the IC50 on Melanocortin receptor 4 [2] was 759 nM.

Take `CN1CCN[C@@H](C(=O)N[C@@H](Cc2ccc(F)cc2)C(=O)N2CCC(C(=O)NC(C)(C)C)(C3CCCCC3)CC2)C1`: at Melanocortin receptor 5, the Activity worked out at 31% and the EC50 amounted to 977 nM. Also, on Melanocortin receptor 4 [1], the Activity was found to be 98% and the 50% effective concentration (EC50) amounted to 6.5 nM. At Melanocortin receptor 4 [2], the concentration for half-maximal inhibition (IC50) is 13.6 nM.

Regarding `N#CCC1(C2CCCCC2)CCN(C(=O)[C@H](Cc2ccc(Cl)cc2)NC(=O)[C@H]2Cc3ccccc3CN2)CC1`, on Melanocortin receptor 5, the Activity was 42% and the EC50 was found to be 640 nM. Further, on Melanocortin receptor 4 [1], the Activity turned out to be 51% and the EC50 stood at 189 nM. Moreover, the IC50 on Melanocortin receptor 4 [2] was 6.8 nM. Also, in the test listed under Homo sapiens [3], the Selectivity ratio was 3.

Regarding `CN1CCN[C@@H](C(=O)N[C@@H](Cc2ccc(F)cc2)C(=O)N2CCC(C(=O)NC(C)(C)C)(C3(C)CCCCC3)CC2)C1`, at Melanocortin receptor 5, the Activity came out at 56% and the 50% effective concentration (EC50) is 1980 nM. Moreover, at Melanocortin receptor 4 [1], the Activity came to 79% and the EC50 came to 57.8 nM. In addition, the IC50 at Melanocortin receptor 4 [2] turned out to be 36.6 nM.

`N#CCC1(C2CCCC2)CCN(C(=O)[C@H](Cc2ccc(Cl)cc2)NC(=O)[C@H]2Cc3ccccc3CN2)CC1`: the results for the Activity on Melanocortin receptor 5 and at Melanocortin receptor 4 [1] were 40% and 52%, respectively. Also, the EC50 was 630 nM on Melanocortin receptor 5 and 196 nM on Melanocortin receptor 4 [1]. On Melanocortin receptor 4 [2], this compound registered an IC50 of 16.4 nM.

As to `CCC(C)C1(Cc2nnnn2C)CCN(C(=O)[C@H](Cc2ccc(Cl)cc2)NC(=O)[C@H]2Cc3ccccc3CN2)CC1` (some centres undefined), the Activity came to 39% on Melanocortin receptor 5, 107% on Melanocortin receptor 4 [1] and 33% at Melanocortin receptor 3. The EC50 was 250 nM on Melanocortin receptor 5, 3.9 nM at Melanocortin receptor 4 [1] and 263 nM at Melanocortin receptor 3. Further, the 50% inhibitory concentration (IC50) at Melanocortin receptor 4 [2] is 3.7 nM.

With `CN1CCN[C@@H](C(=O)N[C@@H](Cc2ccc(F)cc2)C(=O)N2CCC(C(=O)NC(C)(C)C)(C3C=CC(=O)CC3)CC2)C1` (some centres undefined), at Melanocortin receptor 4 [1], the Activity turned out to be 59% and the EC50 was determined as 1770 nM. At Melanocortin receptor 4 [2], this compound came in with an IC50 of 343 nM.

For the compound `CCCCC1(CC#N)CCN(C(=O)[C@H](Cc2ccc(Cl)cc2)NC(=O)[C@H]2Cc3ccccc3CN2)CC1`, the Activity turned out to be 21% at Melanocortin receptor 5 and 40% at Melanocortin receptor 4 [1]. For the same compound, the values for the EC50 on Melanocortin receptor 5 and on Melanocortin receptor 4 [1] were 480 nM and 281 nM, respectively. Also, the IC50 on Melanocortin receptor 4 [2] is 22.2 nM.

With `CN1CCN[C@@H](C(=O)N[C@@H](Cc2ccc(F)cc2)C(=O)N2CCC(CC3CC3)(C(=O)NC(C)(C)C)CC2)C1`, at Melanocortin receptor 4 [1], the Activity was 54% and the EC50 was determined as 2170 nM. In addition, at Melanocortin receptor 4 [2], the half-inhibitory concentration (IC50) is 840 nM.

Regarding `CC1CCC(C2(C(=O)NC(C)(C)C)CCN(C(=O)[C@H](Cc3ccc(F)cc3)NC(=O)[C@H]3CN(C)CCN3)CC2)CC1` (some centres undefined), the Activity is 27% at Melanocortin receptor 5, 81% on Melanocortin receptor 4 [1] and 37% at Melanocortin receptor 3. Moreover, the EC50 on Melanocortin receptor 5 is 888 nM; on Melanocortin receptor 4 [1], 10 nM; on Melanocortin receptor 3, 230 nM. This compound returned an IC50 on Melanocortin receptor 4 [2] of 6.8 nM.

For `Cn1nnnc1CC1(CC(C)(C)C)CCN(C(=O)[C@H](Cc2ccc(Cl)cc2)NC(=O)[C@H]2Cc3ccccc3CN2)CC1`, on Melanocortin receptor 5, the Activity amounted to 27% and the EC50 was 380 nM. Also, at Melanocortin receptor 4 [1], the Activity was found to be 76% and the EC50 was found to be 21 nM. The same compound registered an IC50 on Melanocortin receptor 4 [2] of 3.6 nM.

Turning to `Cn1nnnc1CC1(Cc2ccccc2)CCN(C(=O)[C@H](Cc2ccc(Cl)cc2)NC(=O)[C@H]2Cc3ccccc3CN2)CC1`, the values for the Activity at Melanocortin receptor 5, at Melanocortin receptor 4 [1] and at Melanocortin receptor 3 were 20%, 70% and 17%, respectively. Besides, the EC50 on Melanocortin receptor 5 worked out at 1760 nM; on Melanocortin receptor 4 [1] it was 111 nM; at Melanocortin receptor 3 it was 840 nM. Besides, the 50% inhibitory concentration (IC50) on Melanocortin receptor 4 [2] amounted to 52.3 nM.

`CCCCCCC1(Cc2nnnn2C)CCN(C(=O)[C@H](Cc2ccc(Cl)cc2)NC(=O)[C@H]2Cc3ccccc3CN2)CC1`: the Activity at Melanocortin receptor 5 amounted to 15%; on Melanocortin receptor 4 [1], 84%; on Melanocortin receptor 3, 34%. Besides, the EC50 is 684 nM on Melanocortin receptor 5, 28.7 nM at Melanocortin receptor 4 [1] and 1000 nM at Melanocortin receptor 3. The compound further came in with an IC50 on Melanocortin receptor 4 [2] of 4 nM.

For the compound `CN1CCN[C@@H](C(=O)N[C@@H](Cc2ccc(F)cc2)C(=O)N2CCC(C(=O)NC(C)(C)C)(C3CCC(C)(C)CC3)CC2)C1`, the Activity on Melanocortin receptor 5 was determined as 19%; on Melanocortin receptor 4 [1], 87%; at Melanocortin receptor 3, 42%. For the same compound, the EC50 amounted to 1120 nM on Melanocortin receptor 5, 546 nM on Melanocortin receptor 4 [1] and 241 nM at Melanocortin receptor 3. The compound also returned an IC50 on Melanocortin receptor 4 [2] of 162 nM.

With `Cn1nnnc1CC1(C2CCCCC2)CCN(C(=O)[C@H](Cc2ccc(Cl)cc2)NC(=O)[C@H]2Cc3ccccc3CN2)CC1`, the Activity at Melanocortin receptor 5 amounted to 57%; at Melanocortin receptor 4 [1], 96%; on Melanocortin receptor 3 it was 50%. The results for the EC50 at Melanocortin receptor 5, at Melanocortin receptor 4 [1] and at Melanocortin receptor 3 were 222 nM, 3.2 nM and 115 nM, respectively. Also, the Selectivity ratio in the test filed under Homo sapiens [4] was found to be 36; in the test listed under Homo sapiens [3], 69. On Melanocortin receptor 4 [2], this compound had a half-inhibitory concentration (IC50) of 0.85 nM.

`Cn1nnnc1CC1(c2ccc(Cl)cc2)CCN(C(=O)[C@H](Cc2ccc(Cl)cc2)NC(=O)[C@H]2Cc3ccccc3CN2)CC1`: the figures for the Activity at Melanocortin receptor 5, at Melanocortin receptor 4 [1] and on Melanocortin receptor 3 were 17%, 100% and 92%, respectively. Further, the concentration for a half-maximal effect (EC50) at Melanocortin receptor 5 is 527 nM; on Melanocortin receptor 4 [1], 4.9 nM; on Melanocortin receptor 3, 434 nM. The IC50 on Melanocortin receptor 4 [2] stood at 113 nM.

Regarding `CCC(C)(C)C1(C(=O)NC(C)(C)C)CCN(C(=O)[C@H](Cc2ccc(F)cc2)NC(=O)[C@H]2CN(C)CCN2)CC1`, on Melanocortin receptor 4 [1], the Activity turned out to be 55% and the 50% effective concentration (EC50) amounted to 151 nM. Also, the IC50 on Melanocortin receptor 4 [2] worked out at 66.2 nM.

As for `CN1CCN[C@@H](C(=O)N[C@@H](Cc2ccc(F)cc2)C(=O)N2CCC(CC3CCC3)(C(=O)NC(C)(C)C)CC2)C1`, on Melanocortin receptor 4 [1], the Activity was determined as 55% and the half-maximal effective concentration (EC50) stood at 563 nM. This compound gave an IC50 on Melanocortin receptor 4 [2] of 177 nM.

Take `Cn1nnnc1CC1(C2CCOCC2)CCN(C(=O)[C@H](Cc2ccc(Cl)cc2)NC(=O)[C@H]2Cc3ccccc3CN2)CC1`: the Activity is 18% at Melanocortin receptor 5, 90% on Melanocortin receptor 4 [1] and 18% at Melanocortin receptor 3. The values for the EC50 at Melanocortin receptor 5, on Melanocortin receptor 4 [1] and at Melanocortin receptor 3 were 2950 nM, 157 nM and 2950 nM, respectively. Moreover, the half-maximal inhibitory concentration (IC50) on Melanocortin receptor 4 [2] turned out to be 32 nM.
